Measurements as given in US20220257569A1, “INDOLE-OXADIAZOLE COMPOUNDS AND THEIR THERAPEUTIC USE” (THE GOVERNING COUNCIL OF THE UNIVERSITY OF TORONTO, priority 2018, published 2022).

Key:
cannabinoid CB1 receptor = molecular target: T1, cannabinoid CB1 receptor (Homo sapiens, UniProt P21554); experiment: PathHunter β-Arrestin assay (allosteric inhibition of agonist Emax); format: cell-based; settings: FIG. 1; reduction in Emax not overcome by higher concentrations of agonist
T1 construct: host or cells: HEK293 CB1 β-arrestin cells
T1 sequence (P21554 whole entry): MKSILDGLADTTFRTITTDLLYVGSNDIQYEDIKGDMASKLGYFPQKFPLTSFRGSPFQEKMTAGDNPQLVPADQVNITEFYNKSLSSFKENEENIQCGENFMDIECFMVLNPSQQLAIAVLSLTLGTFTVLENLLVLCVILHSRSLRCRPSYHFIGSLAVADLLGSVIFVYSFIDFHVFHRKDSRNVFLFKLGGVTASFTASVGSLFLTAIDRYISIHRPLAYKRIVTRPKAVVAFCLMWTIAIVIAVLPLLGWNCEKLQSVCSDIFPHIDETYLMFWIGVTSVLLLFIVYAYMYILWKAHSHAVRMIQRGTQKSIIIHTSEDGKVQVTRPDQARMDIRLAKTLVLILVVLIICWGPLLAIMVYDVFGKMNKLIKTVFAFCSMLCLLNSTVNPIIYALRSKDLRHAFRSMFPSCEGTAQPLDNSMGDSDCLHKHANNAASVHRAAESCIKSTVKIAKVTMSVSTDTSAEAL
Source text: PathHunter™ enzyme fragment complementation is the most important method to measure β-arrestin recruitment. PathHunter™ β-Arrestin assays developed by DiscoveRX are revolutionary high-throughput screening assays for monitoring GPCR activation following ligand stimulation, without an imaging instrument, fluorescent protein tag, or radioactivity.
Instead, the assays detect GPCR activation through binding of β-arrestin to the expressed GPCR of interest, and measure the interaction of the two proteins using enzyme fragment complementation (EFC). The EFC approach offers a range of benefits for screening, including signal amplification and robust performance.
The larger portion of β-gal, termed EA for enzyme acceptor, is fused to the C-terminus of β-arrestin. The smaller, complementing fragment of β-gal, the ProLink™ tag, is expressed as a fusion protein with the GPCR of interest at the C-terminus. Upon activation, the GPCR is bound by β-arrestin. The interaction of β-arrestin and the GPCR forces the interaction of ProLink and EA, thus allowing complementation of the two fragments of β-gal and the formation of a functional enzyme capable of hydrolyzing substrate and generating a […] signal.
Using the PathHunter™ CB1 kit from DiscoveRX, a cannabinoid CB1 receptor agonist is added and activates the receptor, EA, which is fused to the C-terminus of β-arrestin, and then interacts with the ProLink™ tag which is fused to the CB1 receptor. This will result in the […] signal that is recorded by a luminescence plate reader. The […] signal is directly related to the activation of the receptor, therefore a higher concentration of agonist will yield a larger […] signal. The cannabinoid agonist is added in increasing concentrations to obtain an agonist dose response curve. With pre-incubation of a potential allosteric modulator, either an enhancement of agonist activity with an allosteric enhancer or a decrease in the maximal response of the agonist with an allosteric inhibitor is expected.
All raw data are obtained as luminescence (relative light units), and are normalised and presented as a percentage of the maximal response for the cannabinoid CB1 receptor agonist CP55,940 (2-[(1R,2R,5R)-5-hydroxy-2-(3-hydroxypropyl)cyclohexyl]-5-(2-methyloctan-2-yl)phenol).
The PathHunter™ β-Arrestin assay (from DiscoveRX, Fremont, USA) was performed as follows. HEK293 CB1 β-arrestin cells were plated 48 hours before use and incubated at 37° C., 5% CO2 in a humidified incubator. Test compounds were dissolved in dimethylsulfoxide (DMSO) and diluted in optimized cell culture (OCC, as supplied by DiscoveRX) media to the required concentrations. 5 μL of test compound or vehicle solution was added to each well and incubated for 60 minutes at 37° C., 5% CO2 in a humidified incubator. 5 μL of increasing concentrations of anandamide was added to each well followed by a 90-minute incubation at 37° C., 5% CO2 in a humidified incubator. 55 μL of detection reagent (as supplied by DiscoveRX) was then added, followed by a further 90 minute incubation at room temperature in the dark. Chemiluminescence, reported in relative light units (RLU—a dimensionless value, standardised as a % of maximum stimulation with anandamide), was measured on a standard luminescence plate reader.
Data were plotted as % of maximal stimulation (Emax) caused by agonist versus the logarithm of concentration of agonist, in the presence or absence of a fixed concentration of test compound (modulator) or vehicle. For example, stimulation in the presence of agonist alone will give a value for stimulation expressed in RLU, which can be expressed as a range from 0% (at lowest agonist concentration, e.g., 1 nM) to 100% (at the highest agonist concentration, e.g., 10 μM). […]

DATKO mice [1] = experiment: Pre-pulse inhibition (PPI) of acoustic startle response; format: in vivo; settings: 10 mg/kg
Procedure: (§1) Adult (>P70) GluN1-knockdown (GluN1KD—F1: C571Bl/6J x 129S1/SvlmJ) and DAT-knockout (DATKO—C57Bl/6J), balanced for sex, were treated with either vehicle (1:1:18-Tween80:95% ethanol:saline) or a novel CB1 negative allosteric modulator (CB1 NAM), ABM300, at 10 mg/kg, was tested in behavioural assays, and compared to littermate controls. Locomotor, stereotypic movements and vertical activity were tested, along with anxiety/mania and sensorimotor gating behaviours. All data were analyzed with two- or three-way ANOVA, as appropriate, and corrected for multiple comparisons.
Loss of PPI is a common symptom found in SCZ and is widely accepted as an endophenotype. It is commonly considered an “interface” of psychosis and cognition. PPI deficits have been described in other psychiatric diseases; during acute mania in BD (Perry et al., 2001). PPI was measured via automated startle boxes. GluN1 KD and DATKO mice all display deficits in PPI, and this behaviour is responsive to treatment with antipsychotics.

DATKO mice [2] = experiment: Open field test in DATKO mice and WT littermates; format: in vivo; settings: 10 mg/kg; for Locomotor Activity (total distance traveled) / Stereotypy (total stereotypic movements) / Vertical Activity (total): mean±SEM
Source text: DAT1/SLC6A3 gene polymorphism associations have been identified in various psychiatric disorders, including ADHD, BD and SCZ. Also, in line with reduced functioning of the dopamine transporter (DAT) in BD patients, mice without functioning DAT display behavioural abnormalities that model mania observed in BD and that mimic positive symptoms in SCZ. These mice are accepted as a model for assessing the effects of novel small molecules that may have utility in modulating the dopamine dysfunction; deficits respond to both lithium and antipsychotics (Beaulieu et al., 2004; Gainetdinov et al., 1999; Ralph et al., 2001).
as §1
Classically, locomotor output has been used as a gold standard for the measure of dopamine system dysfunction. The role of dopamine in movement control is well defined and, in its simplest forms, testing for hyperactivity is based on the premise that enhanced dopaminergic activity in rodents leads to enhanced motor activity (van den Buuse et al., 2010). Locomotor, stereotypic and vertical activity was recorded using digital activity monitors, quantifying horizontal and vertical activity, along with repetitive behaviour, via infrared beam breaks. GluN1 KD and DATKO display basal hyperactivity, with increases in stereotypic behaviours which can be ameliorated with antipsychotics (Peleg-Raibstein et al., 2008).

## CCc1c(-c2nnc(Nc3ccccc3)o2)[nH]c2ccc(Cl)cc12 [ABM300, 5-(5-Chloro-3-ethyl-1H-indol-2-yl)-N-phenyl-1,3,4-oxadiazol-2-amine]
Cannabinoid CB1 receptor
  type of modulation: allosteric inhibitor (negative allosteric modulator)
DATKO mice [1]
  effect on sensorimotor gating deficits, pre-pulse inhibition (in words): rescues sensorimotor gating deficits
DATKO mice [2]; DATKO mice
  effect on hyperactivity (in words): reduces hyperactivity
DATKO mice [2]; DATKO mice, open field
  effect on abnormal stereotypic behaviours (in words): reduces abnormal stereotypic behaviours
  effect on abnormal vertical exploration (risk-taking behaviour) (in words): reduces abnormal vertical exploration
  Locomotor Activity (total distance traveled): 13120 ± 1961 cm
  Stereotypy (total stereotypic movements): 900 ± 96
  Vertical Activity (total): 530 ± 101
DATKO mice [2]; WT (C57Bl/6J) mice, open field
  Locomotor Activity (total distance traveled): 1851 ± 378 cm
  Stereotypy (total stereotypic movements): 533 ± 69
  Vertical Activity (total): 262 ± 69
